Data from ChEMBL document CHEMBL1201862, “PubChem BioAssay data set” (2004).
The source made the active and inactive calls.

Columns and labels:
HEK293 = experiment: EBV LMP1 TES2 canonical NF-kB signalling blockers – cell-based, HEK293, luciferase, cherry-pick, dose response (AID 588343); type: functional; details: Homo sapiens
[1] = target: SWI/SNF-related matrix-associated actin-dependent regulator of chromatin subfamily A member 2 (Homo sapiens, UniProt P51531); experiment: Luminescence-based cell-based high throughput dose response assay to identify activators of the function of SWI/SNF related, matrix associated, actin dependent regulator of chromatin, subfamily a, member 2 (SMARCA2, BRM).; type: functional
[2] = Counterscreen for activators of the function of SWI/SNF related, matrix associated, actin dependent regulator of chromatin, subfamily a, member 2 (SMARCA2, BRM): Luminescence-based cell-based high throughput dose response assay to identify non-selective compounds using the VP16 reporter assay.; type: functional
[3] = target: Glucose-6-phosphate 1-dehydrogenase (Homo sapiens, UniProt P11413); experiment: inhibition of Homo sapiens G6PD, dose series – biochemical, fluorescence, selectivity assay for P. falciparum G6PD inhibitor project, dose response (AID 504792); type: functional
[4] = target: T1, Sentrin-specific protease 8 (Homo sapiens, UniProt Q96LD8); type: functional
T1 sequence (Q96LD8 whole entry): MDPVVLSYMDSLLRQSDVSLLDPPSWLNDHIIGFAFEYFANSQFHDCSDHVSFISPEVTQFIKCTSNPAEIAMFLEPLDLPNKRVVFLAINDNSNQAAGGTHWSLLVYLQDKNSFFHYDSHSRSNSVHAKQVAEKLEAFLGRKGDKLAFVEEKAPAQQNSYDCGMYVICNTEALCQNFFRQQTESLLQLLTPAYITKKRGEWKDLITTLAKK

[5] = viability of HCT116 lacking mutant beta-catenin – cell-based, human colon tumor, dose response (AID 1045); type: functional;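 further: HCT116 colon tumor cells with beta catenin knocked out; cells exposed to compound for 60 hours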
[6] = target: T1, Sentrin-specific protease 8; type: functional; remark: listed apart in the source
[7] = target: Heat shock protein HSP 90-alpha (Homo sapiens, UniProt P07900); type: functional, organism-based
[8] = viability of PTEN-deleted HCT116 cells – cell-based, HCT116 PTEN knockout, dose response (AID 1047); type: functional;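 further: HCT116 colon tumor cells with PTEN knocked out; cells exposed to compound for 60 hours before readout; potency for loss of cell viability measured by luminescence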
[9] = target: T2, Adenosylmethionine-8-amino-7-oxononanoate aminotransferase (Mycobacterium tuberculosis, UniProt P9WQ81); experiment: Mycobacterium tuberculosis BioA enzyme inhibitor Measured in Biochemical System Using Plate Reader - 2163-02_Inhibitor_Dose_CherryPick_Activity.; type: functional, Mycobacterium tuberculosis UT205
T2 sequence (P9WQ81 whole entry): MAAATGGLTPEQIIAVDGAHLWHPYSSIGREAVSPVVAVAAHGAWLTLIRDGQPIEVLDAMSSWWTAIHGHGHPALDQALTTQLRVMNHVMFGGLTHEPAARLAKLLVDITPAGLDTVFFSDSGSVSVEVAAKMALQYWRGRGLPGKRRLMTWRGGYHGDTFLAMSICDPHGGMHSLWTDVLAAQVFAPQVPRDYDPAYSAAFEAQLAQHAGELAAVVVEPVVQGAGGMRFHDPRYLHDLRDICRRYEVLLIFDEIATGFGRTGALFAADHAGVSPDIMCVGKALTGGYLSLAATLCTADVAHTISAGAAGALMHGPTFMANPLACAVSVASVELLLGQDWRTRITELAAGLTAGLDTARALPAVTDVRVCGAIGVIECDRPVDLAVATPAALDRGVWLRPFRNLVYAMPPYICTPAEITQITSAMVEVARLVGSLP

Vero [10] = experiment: cells; type: functional; details: Chlorocebus sabaeus
Vero [11] = experiment: cells; type: functional, cell-based; details: Chlorocebus sabaeus
[12] = target: T3, Ubiquitin-conjugating enzyme E2 N (Homo sapiens, UniProt P61088); type: functional
T3 sequence (P61088 whole entry): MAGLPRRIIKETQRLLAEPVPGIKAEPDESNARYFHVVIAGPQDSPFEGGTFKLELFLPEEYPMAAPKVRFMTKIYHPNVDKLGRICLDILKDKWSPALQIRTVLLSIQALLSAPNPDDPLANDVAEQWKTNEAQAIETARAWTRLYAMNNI

Bcl-2-related protein A1 = target: T4, Bcl-2-related protein A1 (Mus musculus, UniProt Q07440); type: functional;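 further: confirmatory dose–response counterscreen on Bfl-1, used to check hits from a UBC13 polyubiquitin inhibitor campaign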
T4 sequence (Q07440 whole entry): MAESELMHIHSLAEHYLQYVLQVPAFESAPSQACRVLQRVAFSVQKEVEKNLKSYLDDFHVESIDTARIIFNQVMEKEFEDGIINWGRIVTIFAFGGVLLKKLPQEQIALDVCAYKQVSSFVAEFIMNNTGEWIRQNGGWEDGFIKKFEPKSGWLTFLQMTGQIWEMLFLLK

[13] = target: T3, Ubiquitin-conjugating enzyme E2 N; type: functional; remark: listed apart in the source
[14] = viability of uninfected HEp-2 cells – cell-based, HTS, cytotoxicity control for RSV inhibitor project, dose response (AID 2410); type: functional; details: human respiratory syncytial virus
[15] = bead-based luminescence quenchers, dual-tagged ARNT – biochemical, AlphaScreen, cherry-pick, artefact control for ARNT-TACC3 interaction inhibitor project, dose response (AID 651705); type: functional;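 further: AlphaScreen bead proximity signal that flags compounds interfering with the detection technology; potency reflects signal decrease which marks the compound as an assay artifact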
[16] = target: T5, Type-1 angiotensin II receptor (Homo sapiens, UniProt P30556); experiment: antagonism of angiotensin II type 1 receptor – cell-based, uHTS hits, selectivity assay for APJ receptor antagonist project, dose response (AID 463214); type: functional;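 further: antagonist potency against angiotensin II stimulated AT1 response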
T5 sequence (P30556 whole entry): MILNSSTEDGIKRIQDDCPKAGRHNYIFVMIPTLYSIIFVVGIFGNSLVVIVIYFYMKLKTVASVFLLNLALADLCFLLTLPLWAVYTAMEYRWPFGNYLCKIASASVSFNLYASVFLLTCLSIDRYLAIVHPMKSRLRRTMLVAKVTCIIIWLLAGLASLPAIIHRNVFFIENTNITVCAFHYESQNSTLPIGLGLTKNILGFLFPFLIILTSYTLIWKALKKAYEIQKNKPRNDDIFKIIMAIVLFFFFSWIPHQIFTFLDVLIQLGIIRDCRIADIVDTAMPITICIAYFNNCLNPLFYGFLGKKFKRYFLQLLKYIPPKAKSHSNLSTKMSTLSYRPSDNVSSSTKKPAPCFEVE

Beta-galactosidase = Beta-galactosidase (Escherichia coli, UniProt Q8VNN2); experiment: PubChem AID 485352; type: functional
[17] = target: 5-hydroxytryptamine receptor 2A (Mus musculus, UniProt P35363); type: functional, cell-based;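 further: CHO-K1 cells with tagged receptor and beta-arrestin; agonist potency measured as compound-induced activation of the receptor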
Mu-type opioid receptor = Mu-type opioid receptor (Homo sapiens, UniProt P35372); type: functional, cell-based;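 further: U2OS cells with beta-arrestin recruitment to OPRM1 by beta-gal complementation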
Mu-type opioid receptor, sequence (P35372 whole entry): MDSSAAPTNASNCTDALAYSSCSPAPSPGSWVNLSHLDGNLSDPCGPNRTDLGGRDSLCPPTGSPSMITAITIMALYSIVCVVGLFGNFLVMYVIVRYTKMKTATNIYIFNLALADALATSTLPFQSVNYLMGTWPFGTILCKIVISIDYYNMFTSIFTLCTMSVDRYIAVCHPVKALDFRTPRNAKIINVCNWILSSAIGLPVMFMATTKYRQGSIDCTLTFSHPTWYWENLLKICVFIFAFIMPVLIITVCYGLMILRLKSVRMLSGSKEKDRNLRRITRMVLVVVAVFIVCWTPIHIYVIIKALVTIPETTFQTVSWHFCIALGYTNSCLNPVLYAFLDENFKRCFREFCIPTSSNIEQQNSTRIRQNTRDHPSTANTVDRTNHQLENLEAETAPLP

Glucose-6-phosphate 1-dehydrogenase, sequence (P11413 whole entry): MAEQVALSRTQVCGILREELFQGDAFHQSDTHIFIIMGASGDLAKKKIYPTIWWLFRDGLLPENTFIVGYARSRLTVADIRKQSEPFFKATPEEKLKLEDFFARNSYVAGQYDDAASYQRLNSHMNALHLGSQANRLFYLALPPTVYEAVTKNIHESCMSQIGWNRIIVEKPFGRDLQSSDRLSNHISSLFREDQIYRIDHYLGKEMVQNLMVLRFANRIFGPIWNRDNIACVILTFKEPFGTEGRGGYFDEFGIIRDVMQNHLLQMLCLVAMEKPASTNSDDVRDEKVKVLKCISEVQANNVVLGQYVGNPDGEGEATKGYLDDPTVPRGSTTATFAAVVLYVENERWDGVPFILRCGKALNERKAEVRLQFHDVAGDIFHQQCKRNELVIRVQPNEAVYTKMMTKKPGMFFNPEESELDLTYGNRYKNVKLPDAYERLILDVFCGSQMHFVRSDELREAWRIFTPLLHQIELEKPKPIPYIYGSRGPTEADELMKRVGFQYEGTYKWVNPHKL
Beta-galactosidase, sequence (Q8VNN2 whole entry): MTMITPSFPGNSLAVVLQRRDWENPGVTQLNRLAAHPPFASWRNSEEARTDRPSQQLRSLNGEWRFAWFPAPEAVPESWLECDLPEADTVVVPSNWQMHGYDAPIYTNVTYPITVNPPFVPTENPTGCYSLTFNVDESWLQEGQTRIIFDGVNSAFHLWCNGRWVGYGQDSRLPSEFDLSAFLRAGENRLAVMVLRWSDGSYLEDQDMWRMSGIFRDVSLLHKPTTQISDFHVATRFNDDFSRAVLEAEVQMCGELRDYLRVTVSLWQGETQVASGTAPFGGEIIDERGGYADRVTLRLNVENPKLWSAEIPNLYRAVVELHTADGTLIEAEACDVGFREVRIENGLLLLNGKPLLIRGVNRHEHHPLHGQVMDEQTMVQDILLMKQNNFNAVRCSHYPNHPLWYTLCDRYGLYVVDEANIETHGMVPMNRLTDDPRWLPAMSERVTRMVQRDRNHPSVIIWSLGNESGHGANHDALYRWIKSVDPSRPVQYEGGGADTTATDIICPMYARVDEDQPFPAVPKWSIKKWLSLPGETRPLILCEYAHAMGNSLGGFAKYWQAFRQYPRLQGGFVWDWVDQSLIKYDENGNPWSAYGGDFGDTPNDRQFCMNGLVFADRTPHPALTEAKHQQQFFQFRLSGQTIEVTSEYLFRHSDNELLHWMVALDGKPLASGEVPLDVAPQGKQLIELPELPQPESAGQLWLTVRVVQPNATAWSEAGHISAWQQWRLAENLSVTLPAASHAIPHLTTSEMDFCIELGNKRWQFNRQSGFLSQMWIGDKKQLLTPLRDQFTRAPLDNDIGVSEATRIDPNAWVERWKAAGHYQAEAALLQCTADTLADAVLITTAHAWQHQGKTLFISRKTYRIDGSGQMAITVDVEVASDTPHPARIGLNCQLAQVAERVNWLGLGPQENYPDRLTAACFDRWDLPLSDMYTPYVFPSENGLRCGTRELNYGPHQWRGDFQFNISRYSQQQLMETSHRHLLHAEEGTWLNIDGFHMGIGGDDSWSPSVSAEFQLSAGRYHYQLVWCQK
5-hydroxytryptamine receptor 2A, sequence (P35363 whole entry): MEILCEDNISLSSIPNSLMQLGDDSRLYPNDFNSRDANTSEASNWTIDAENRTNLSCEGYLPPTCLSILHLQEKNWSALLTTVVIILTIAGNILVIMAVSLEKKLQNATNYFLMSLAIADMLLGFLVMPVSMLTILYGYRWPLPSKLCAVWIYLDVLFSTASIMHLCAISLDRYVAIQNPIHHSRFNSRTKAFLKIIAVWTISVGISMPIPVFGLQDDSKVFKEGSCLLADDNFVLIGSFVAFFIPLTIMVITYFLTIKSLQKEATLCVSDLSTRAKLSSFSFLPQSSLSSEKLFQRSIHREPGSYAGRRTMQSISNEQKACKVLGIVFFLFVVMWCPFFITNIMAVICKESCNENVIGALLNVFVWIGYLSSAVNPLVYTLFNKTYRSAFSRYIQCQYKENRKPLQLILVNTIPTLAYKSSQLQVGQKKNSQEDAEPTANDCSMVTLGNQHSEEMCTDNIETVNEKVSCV
SWI/SNF-related matrix-associated actin-dependent regulator of chromatin subfamily A member 2, sequence (P51531 whole entry): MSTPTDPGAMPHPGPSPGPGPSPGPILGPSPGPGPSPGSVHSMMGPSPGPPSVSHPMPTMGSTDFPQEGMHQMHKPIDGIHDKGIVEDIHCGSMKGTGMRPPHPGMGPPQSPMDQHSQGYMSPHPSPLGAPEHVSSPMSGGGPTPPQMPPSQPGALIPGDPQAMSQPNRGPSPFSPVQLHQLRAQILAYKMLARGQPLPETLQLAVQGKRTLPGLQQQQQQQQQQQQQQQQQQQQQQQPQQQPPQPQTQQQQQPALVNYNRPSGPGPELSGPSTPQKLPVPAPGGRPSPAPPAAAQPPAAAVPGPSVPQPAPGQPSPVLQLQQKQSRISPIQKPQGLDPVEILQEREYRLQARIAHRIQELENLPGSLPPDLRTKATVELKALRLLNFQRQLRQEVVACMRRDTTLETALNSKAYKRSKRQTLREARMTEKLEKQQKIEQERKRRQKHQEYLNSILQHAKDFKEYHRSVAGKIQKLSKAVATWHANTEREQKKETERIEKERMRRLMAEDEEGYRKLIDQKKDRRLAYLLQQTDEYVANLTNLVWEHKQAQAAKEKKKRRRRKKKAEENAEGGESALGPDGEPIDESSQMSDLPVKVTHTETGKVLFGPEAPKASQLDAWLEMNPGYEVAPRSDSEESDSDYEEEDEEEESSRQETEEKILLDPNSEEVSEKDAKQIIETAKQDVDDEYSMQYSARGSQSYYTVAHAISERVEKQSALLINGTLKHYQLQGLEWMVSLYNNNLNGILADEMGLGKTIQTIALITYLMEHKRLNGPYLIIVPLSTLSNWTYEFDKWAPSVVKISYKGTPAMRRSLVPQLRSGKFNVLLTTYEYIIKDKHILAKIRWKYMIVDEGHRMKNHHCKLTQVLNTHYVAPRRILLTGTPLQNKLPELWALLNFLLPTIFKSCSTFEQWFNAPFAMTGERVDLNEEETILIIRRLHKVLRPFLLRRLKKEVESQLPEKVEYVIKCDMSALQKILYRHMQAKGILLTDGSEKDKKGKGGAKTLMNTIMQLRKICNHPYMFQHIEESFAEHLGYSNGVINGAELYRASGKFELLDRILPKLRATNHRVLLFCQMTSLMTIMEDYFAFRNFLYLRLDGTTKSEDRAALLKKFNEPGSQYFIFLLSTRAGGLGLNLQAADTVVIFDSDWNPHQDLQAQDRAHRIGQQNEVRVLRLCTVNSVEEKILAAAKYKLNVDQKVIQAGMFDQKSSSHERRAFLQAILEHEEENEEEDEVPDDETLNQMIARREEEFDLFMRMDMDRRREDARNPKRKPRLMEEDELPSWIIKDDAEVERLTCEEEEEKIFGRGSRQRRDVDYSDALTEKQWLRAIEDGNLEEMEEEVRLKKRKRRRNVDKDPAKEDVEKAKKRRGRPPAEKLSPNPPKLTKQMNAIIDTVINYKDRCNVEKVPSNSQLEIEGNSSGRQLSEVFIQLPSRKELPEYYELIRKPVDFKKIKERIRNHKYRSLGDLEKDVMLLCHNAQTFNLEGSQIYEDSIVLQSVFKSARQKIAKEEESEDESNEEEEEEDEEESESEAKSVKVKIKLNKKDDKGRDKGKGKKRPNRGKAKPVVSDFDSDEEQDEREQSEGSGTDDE

Cc1ccc(C(=O)Nc2nnc(SCC(=O)N3CCCc4ccccc43)s2)cc1
AC50 (HEK293): 1.3 µM (active)

O=C(c1cc2ccccc2oc1=O)N1CCOCC1
EC50 [1]: > 91.2 µM (inactive) | EC50 [2]: > 91.2 µM (inactive)

COc1cc(N)c2ncsc2c1
IC50 [3]: > 80 µM (inactive)

Cc1c(Cl)cccc1/N=C/c1ccc([N+](=O)[O-])s1
IC50 [4]: 3.66 µM (active) | EC50 [5]: 40.3 µM (active) | IC50 [6]: 5.17 µM (active) | AC50 [7]: 7.37 µM (active) | EC50 [8]: 26.5 µM (active)

C[C@H](CO)N1C[C@H](C)[C@@H](CN(C)C(=O)Nc2ccc(C(F)(F)F)cc2)Oc2c(cccc2N(C)C)C1=O
IC50 [3]: > 80 µM (inactive)

CC(=O)c1ccc(C(=O)N2CCCC(CO)(Cc3ccccc3C)C2)s1 (configuration not stated)
AC50 [9]: 4.14 µM (active)

O=C(CNC(=O)c1cccc(S(=O)(=O)N2CCc3ccccc32)c1)Nc1ccccc1Br
CC50 (Vero [10]): > 25 µM (active) | IC50 (Vero [11]): 16.9 µM (active)

CCc1ccc2nc(N(CCCN(C)C)C(=O)c3ccc(C(=O)c4ccccc4)cc3)sc2c1
IC50 [12]: 13.2 µM (active) | IC50 (Bcl-2-related protein A1): > 20 µM (inactive) | IC50 [13]: 11.6 µM (active) | CC50 [14]: 20.5 µM (active)

CCOc1ccc(C(=O)CCNC(Cc2c[nH]cn2)C(=O)O)cc1 (configuration not stated)
AC50 [15]: 124 µM (active)

Cc1cc(C)nc(NNS(=O)(=O)c2c(F)cc(F)cc2Br)n1
IC50 [16]: 22.7 µM (not active) | EC50 (Beta-galactosidase): > 40 µM (inactive)

COc1ccccc1CN1CCN(C(=O)c2ccco2)CC1
EC50 [17]: 1.99 µM (active) | EC50 (Mu-type opioid receptor): 92.5 µM (inactive)
